# Measurements published in ChEMBL document CHEMBL3507680, “University of Dundee, Gates Library screen for HepG2 cell viability”.
# Experiment: Human HepG2 cell viability assay in 384 well format
# Assay type: toxicity, cell-based
# Parameters: dose 125 nL, time 70.5 hour; cytotoxicity at 70.5 h: concentration not given beside the values
# Conditions: HepG2 cells, read-out: Inhibition
row,SMILES,cytotoxicity at 70.5 h [%]
1,Cc1csc(N2CCCN(C(=O)c3ccoc3C)CC2)n1,-4.74
2,CC1(c2ccccc2)CCC(=O)N(CC2(N3CCOCC3)CCCC2)C1 (stereo not drawn),6.77
3,OC(CNCc1nnc2ccccn12)c1ccc2c(c1)OCO2 (stereo not drawn),-8
4,Cc1cc(C2CCCN2Cc2nc(-c3ccco3)no2)on1 (stereo not drawn),-0.568
5,CC(C)NC(=O)Cn1ccc2c(Cl)cccc21,-19
6,Cc1cc(C)n(CC(=O)N2CCCC2c2cc3cccnc3[nH]2)n1 (stereo not drawn),2.7
7,CCCN1C[C@H](NC(=O)c2ccccc2F)[C@@H](c2ccc(OC)cc2)C1,0.779
8,COc1cccc(CC(=O)NC(C)c2nc3cccnc3n2C(C)C)c1 (stereo not drawn),-2.69
9,NC(=O)C(NC(=O)CCc1ccc(Cl)s1)c1ccccc1 (stereo not drawn),-7.77
10,COc1cc(CNC(C)c2nnc3n2CCC3)cc(OC)c1 (stereo not drawn),-9.55
11,COc1ccc(Cl)cc1CCNC(=O)NCc1ccncc1,-0.665
12,O=C(NCC1CC1)[C@@H]1CCO[C@@H]2CCN(Cc3ccco3)C[C@H]21,15.7
13,Cc1ccc(-c2cc(-c3nc(CN4CCN(C)CC4)no3)n[nH]2)cc1,22.4
14,CCN(CC)c1ccc(NS(=O)(=O)c2cnn(C(C)C)c2)cn1,-6.47
15,CCN(CC1CN(Cc2cccc(C#N)c2)CCO1)c1cccnn1 (stereo not drawn),0.605
16,Cc1csc(CN2CC[C@H]3C(=O)N(c4cccnc4)CCO[C@H]3C2)n1,11
17,CS(=O)(=O)N1CCC(c2nnc(CN3CCCC3)n2C2CC2)CC1,0.642
18,CCOc1ccc(NC(=O)c2cc3c([nH]c2=O)CCC3)cc1,-13.3
19,C/C=C(\C)CN1C[C@H](NC(=O)CCOC)[C@@H](c2ccc(C)o2)C1,-18
20,NC(=O)c1cncc(N2CCN(Cc3ccc(F)cc3Cl)CC2)n1,-3.73
21,Cc1nsc(NC(=O)N2CCC(C(C)(C)O)CC2)n1,-5.05
22,Cn1cc(C(=O)NCc2cn3c(n2)CN(Cc2ccncc2)CC3)cn1,-7.44
23,Cc1cc(C2CCCN(C(=O)c3cnn(C)c3)C2)ccn1 (stereo not drawn),-8.77

row,SMILES,cytotoxicity at 70.5 h [%]
1,O=S(=O)(Cc1ccc(F)cc1)NCc1nnc2n1CCC2,-24.3
2,CC(NC(=O)c1ccoc1)C(=O)N(C)Cc1cccc(C(F)(F)F)c1 (stereo not drawn),9.42
3,Cc1occc1-c1nnc2n1NC(N)=C(C#N)S2,-22.4
4,CCN1CCC(CC(=O)NCCc2nc(C)c(Cl)s2)CC1,-6.45
5,CN(Cc1n[nH]c2c1CCC2)C(=O)c1cc(-c2cccn2C)n[nH]1,25.6
6,CN(CC1CCCN1C)c1nccc(C2CCCC2)n1 (stereo not drawn),6.3
7,CCN1CCn2cc(CNC(=O)c3cnn(C)c3)nc2C1,-110
8,Cc1cc(N2C[C@H](C3CC3)[C@@H](N)C2)nc(N2CCCCC2)n1,3.53
9,CN(C)C(=O)CN1CCC(c2cncc(-c3cccc(Cl)c3)n2)CC1,-7.08
10,O=C1CN(C(=O)c2cccc(OCc3cscn3)c2)CCN1,-1.69
11,CN(Cc1nnc(C2CC2)n1C)C1CCN(CCS(C)(=O)=O)C1 (stereo not drawn),-6.94
12,Cc1ccc(N2CCCC(NCC(=O)NC3CCOCC3)C2)nn1 (stereo not drawn),-3.6
13,Cc1cc(C(=O)N2CCCC(O)(CN3CCCC3)C2)ccc1Cl (stereo not drawn),1.99
14,CC(C)c1cc(C(=O)NCC2CCCN(c3ncccn3)C2)n(C)n1 (stereo not drawn),-5.82
15,CN1CCCN(C(=O)c2csc3nc(-c4ccc(Cl)cc4)cn23)CC1,-23
16,Cc1cnc(N)c(C(=O)C2CCN(C(=O)c3cnc(C)nc3C)CC2)c1,-6.36
17,CN(Cc1nc(N)nc(N(C)C)n1)Cc1cccc2ccccc12,-10.6
18,CC(C)CNc1nnc(SC(C(=O)NCc2cccnc2)C(C)C)s1 (stereo not drawn),-15.2
19,O=C(O)Cn1nc(-c2ccccc2F)ccc1=O,2.69
20,CC(c1ccccc1)N1CCC(NC(=O)CCc2ccsc2)CC1 (stereo not drawn),-7.82
21,O=C(O)C(c1ccc2c(c1)OCCO2)N1CCCC1 (stereo not drawn),-3.29
22,O=C(Nc1ccc(-n2cccn2)c(F)c1)C1CCN(C(=O)C2CC2)CC1,-0.357
23,O=C(CNC(=O)c1cnc2ccccc2c1O)NCCCn1ccnc1,-16.5

row,SMILES,cytotoxicity at 70.5 h [%]
1,N#Cc1cnn(-c2ccc(C(=O)Nc3ccccn3)cc2)c1N,25.3
2,Cc1[nH]c2c(F)cccc2c1CC(=O)N1CCC(NS(C)(=O)=O)CC1,-7.49
3,Cc1cc(NC(=O)[C@H]2CCCCN2C(=O)OC(C)(C)C)no1,-2.01
4,Cc1cc(CC(=O)N2CCN(CC(C)C)[C@@H]3CS(=O)(=O)C[C@@H]32)ccc1F,7.77
5,COc1cc(NCc2ccncc2)c(-c2nn[nH]n2)cc1OC,-1.7
6,COc1cc(C)ccc1OCCC(=O)N1CCCC1Cn1cccn1 (stereo not drawn),-3.24
7,COc1cccc2c1OCC(C(=O)N1CCC(NS(C)(=O)=O)CC1)C2 (stereo not drawn),-7.91
8,O=C(c1ccc2c(c1)COC2)N1CCN(CC2CC2)CC1,-7.78
9,O=C(c1cc2ccccc2s1)N1CCC(C(=O)O)(n2cccn2)CC1,-4.38
10,Cc1occc1C(=O)N1CCO[C@H]2[C@H](OCc3ccccn3)CC[C@@H]21,-7.78
11,COC(=O)C(O)C1CCN(Cc2cccc(-n3cccn3)c2)CC1 (stereo not drawn),-1.06
12,CC(=O)N1CCN(c2cc(-c3ccccc3)nc3c(C)c(C)nn23)CC1,0.357
13,CCOCCC(=O)Nc1ccnn1-c1ccc(Cl)cc1,-3.17
14,Cc1cccc(C)c1OCCNC(=O)CNC(=O)C1CCCC1,23.5
15,CCN(Cc1ccc(F)cc1Cl)C1CCS(=O)(=O)C1 (stereo not drawn),-19.3
16,CN(CCCc1ccccc1)C(=O)c1cn2c(n1)CNCC2,-3.6
17,CC(O)CN1CCC(CN(C)Cc2ccc(C(N)=O)cc2)CC1 (stereo not drawn),-9.95
18,CCOC(=O)c1cc(C(C)(O)CCC=C(C)C)on1 (stereo not drawn),-9.61
19,COc1nc2c(cc1C(=O)NCCCc1csc(N)n1)CCC2,-6.85
20,O=C(COCCOc1ccccc1)NC1CCN(c2ccccn2)CC1,-12.1
21,CC(C)c1noc(CCC(=O)N2CCCC(n3ccnc3)C2)n1 (stereo not drawn),-5.4
22,CCc1nnc(CNc2ccc(CC(=O)N3CCSCC3)cc2)o1,13.8
23,CC(C)c1noc(CCC(=O)N(CC2CCOC2)C2CC2)n1 (stereo not drawn),-8.06

row,SMILES,cytotoxicity at 70.5 h [%]
1,Cc1cc(=O)n(C)cc1NC(=O)NCc1cccc(F)c1,-2.73
2,CCC(=O)NCc1cc(Br)ccc1OC(F)F,-6
3,CNc1ccc(C)cc1C(=O)N[C@H]1C[C@H]2CN(C)CCN2C1,-13.3
4,COc1cccc(CNC(=O)CC2CSc3nc(C)c(C)c(=O)n32)c1 (stereo not drawn),-2.74
5,CCCS(=O)(=O)NCc1cccnc1Oc1ccc(C)nc1,-0.632
6,CC(O)CN1CCN(C(=O)c2sccc2C2CC2)CC1 (stereo not drawn),-5.67
7,COC1(CNC(=O)c2ccc(F)c(F)c2)CCSC1 (stereo not drawn),-11.7
8,NCC(=O)N1CCC(c2ccnc(Nc3cc(C(F)(F)F)ccn3)n2)C1 (stereo not drawn),16.8
9,CN(C)[C@@H]1CCN(S(C)(=O)=O)[C@H]1Cc1ccccc1,1.53
10,Cc1ccnc(Cn2cc(-c3cccc(C(C)N(C)C)c3)nn2)c1 (stereo not drawn),-6.95
11,Cc1nc(CN(C)CC(c2cccs2)N2CCOCC2)no1 (stereo not drawn),-1.7
12,CCN1CCN(S(=O)(=O)c2ncn(C)c2Cl)CC1,-8.62
13,CCCS(=O)(=O)N1CCC2(CN(c3ccsc3)C(=O)CN2C)C1 (stereo not drawn),-3.38
14,Cc1cccc(CN2CC3(CCN(S(=O)(=O)C4CC4)CC3)OCC2=O)n1,-0.285
15,COc1cc(C(=O)N(Cc2ccco2)C2CC2)cc(OC)c1OC,23.7
16,COCCCN1CCN([C@@H]2c3ccccc3C3(CCNCC3)[C@H]2O)CC1,0.267
17,CCc1nnc(Nc2cc(C)nc(C3CCN(c4cnccn4)C3)n2)s1 (stereo not drawn),-15.3
18,Cc1nc(-n2nc(-c3cccs3)cc2N)[nH]c(=O)c1C,-4.91
19,c1ccc(O[C@@H]2CC[C@H]3[C@H]2OCCN3Cc2ccsc2)nc1,8.42
20,O=C(O)c1ccc(N2CCC(Cc3ccccc3)CC2)nn1,-1.14
21,O=C(N[C@H]1CC[C@@]2(CCC(=O)N2CC2CC2)CC1)c1cnccn1,-11
22,CN(Cc1nnc2n1CCC2)C(=O)CCc1ccc2c(c1)OCO2,-7.61
23,Cc1ccc(C(=O)NS(=O)(=O)c2cc(Cl)ccc2Cl)c(=O)[nH]1,-1.03

row,SMILES,cytotoxicity at 70.5 h [%]
1,NC(=O)c1cccc(CCNCc2cccs2)c1,-3.84
2,O=C(c1ccoc1)N1CCOC2(COCCN(c3ncccn3)C2)C1 (stereo not drawn),-7.67
3,Cc1ncncc1C(=O)N1CCOC(c2nc(C(C)C)n[nH]2)C1 (stereo not drawn),-4.74
4,Cc1nc(CN(C)c2nccc(N(C)C)n2)cs1,-0.0733
5,CCOCCSc1nnc(-c2cn(CC)nc2OCC)n1C,-7.58
6,COCC(C)NC(=O)CCSc1ccc(F)cc1 (stereo not drawn),13.7
7,Cc1nc(C(=O)NCc2ccccn2)cc(C2CCCN2)n1 (stereo not drawn),20.2
8,COCCCC1(C(=O)O)CCCN(Cc2ccccc2C)C1 (stereo not drawn),-4.89
9,CCC(NCCn1cc(C)cn1)C(=O)Nc1cc(C)on1 (stereo not drawn),10.8
10,CNC(=O)CS(=O)(=O)C1CCN(S(=O)(=O)c2ccccc2Br)CC1,-8.95
11,CC(=O)Nc1ccc(S(=O)(=O)N2CCOC(Cn3ccnc3)C2)cc1 (stereo not drawn),-4.79
12,Cc1nccn1CC1CCCN(C(=O)Cc2ccsc2)C1 (stereo not drawn),-17.7
13,CC(C)c1noc(C(C)N2CCN(Cc3nc4ccccc4[nH]3)CC2)n1 (stereo not drawn),-8.5
14,CCN(CC)C(=O)C1(NCc2nc(C)c(C)o2)CCCCC1,-4.63
15,COC(=O)c1cc(OCC2CCC2)cc(C(=O)N[C@@H]2CNCC[C@H]2O)c1,19.4
16,CCCc1cnc(C)nc1N1CCC2(CCCO2)CC1,-1.28
17,CS(=O)(=O)N1CCCC(Cc2cnc(Br)cn2)CC1 (stereo not drawn),13.7
18,Cc1[nH]ccc1C(=O)N(Cc1ccc(O)cc1)CC1CC1,-3.9
19,CC(C)COC(C)C(=O)NCc1ccc(N(C)C)cc1 (stereo not drawn),7.68
20,Cc1nc(CN2C[C@@H](NS(=O)(=O)N(C)C)[C@H](C(C)C)C2)cs1,-1.78
21,c1ccc(C2CCCN2C2CCSCC2)nc1 (stereo not drawn),0.0849
